In ChEMBL document CHEMBL4699554, “Biological Evaluation of Selected Flavonoids as Inhibitors of MNKs Targeting Acute Myeloid Leukemia” (J Nat Prod, 2020):
pIC50: −log10 of the molar value. Active and inactive are the calls of the source. The rule behind the calls is not given here.

Key:
[1] = molecular target: T1, MAP kinase-interacting serine/threonine-protein kinase 2 (Homo sapiens, UniProt Q9HBH9); assay: Inhibition of N-terminal GST-tagged recombinant human full length MNK2 expressed in baculovirus expression system incubated for 1 hr by Kinase Tracer 236 based LanthaScreen Eu kinase binding assay relative to control
Target sequence in this assay (Q9HBH9 whole entry): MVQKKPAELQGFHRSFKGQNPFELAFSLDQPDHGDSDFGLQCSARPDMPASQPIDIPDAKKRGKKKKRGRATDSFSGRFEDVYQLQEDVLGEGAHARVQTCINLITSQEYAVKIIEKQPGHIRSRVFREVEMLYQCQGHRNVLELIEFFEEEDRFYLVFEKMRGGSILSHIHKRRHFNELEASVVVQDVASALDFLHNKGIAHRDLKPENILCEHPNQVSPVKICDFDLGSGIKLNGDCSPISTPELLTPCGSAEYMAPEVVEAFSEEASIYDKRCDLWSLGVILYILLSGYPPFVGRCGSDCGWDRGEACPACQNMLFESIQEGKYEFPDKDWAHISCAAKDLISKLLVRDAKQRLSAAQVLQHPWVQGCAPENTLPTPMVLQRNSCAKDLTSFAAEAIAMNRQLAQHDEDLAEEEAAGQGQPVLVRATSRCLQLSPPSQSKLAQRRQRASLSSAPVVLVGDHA

[2] = molecular target: T1, MAP kinase-interacting serine/threonine-protein kinase 2; assay: Inhibition of N-terminal GST-tagged recombinant human full length MNK2 expressed in baculovirus expression system at 10 uM incubated for 1 hr by Kinase Tracer 236 based LanthaScreen Eu kinase binding assay relative to control
Target sequence in this assay (Q9HBH9 whole entry, looked up): as the sequence (Q9HBH9 whole entry) above

MOLM-13 [3] = assay: Cytotoxicity against human MOLM-13 cells assessed as reduction in cell viability after 72 hrs by MTT assay; format: functional, cell-based; settings: MOLM-13, 72 h
MV4-11 [4] = assay: Cytotoxicity against human MV4-11 cells assessed as reduction in cell viability after 72 hrs by MTT assay; format: functional, cell-based; settings: MV4-11, 72 h
MOLM-13 [5] = assay: Induction of cell death in human MOLM-13 cells assessed as increase in accumulation at sub-G1 phase after 72 hrs by propidium iodide staining based flow cytometric analysis; format: functional; settings: dose microM 1-30, time 72.0 hrs
MOLM-13 [6] = assay: Induction of cell cycle arrest in human MOLM-13 cells assessed as increase in accumulation at sub-G1 phase at 3 to 30 uM after 72 hrs by propidium iodide staining based flow cytometric analysis; format: functional; settings: dose microM 3-30, time 72.0 hrs
[7] = molecular target: T2, MAP kinase-interacting serine/threonine-protein kinase 1 (Homo sapiens, UniProt Q9BUB5); assay: Inhibition of GST-tagged recombinant human full length MNK1 expressed in insect cells at 10 uM relative to control
Target sequence in this assay (Q9BUB5 whole entry, looked up): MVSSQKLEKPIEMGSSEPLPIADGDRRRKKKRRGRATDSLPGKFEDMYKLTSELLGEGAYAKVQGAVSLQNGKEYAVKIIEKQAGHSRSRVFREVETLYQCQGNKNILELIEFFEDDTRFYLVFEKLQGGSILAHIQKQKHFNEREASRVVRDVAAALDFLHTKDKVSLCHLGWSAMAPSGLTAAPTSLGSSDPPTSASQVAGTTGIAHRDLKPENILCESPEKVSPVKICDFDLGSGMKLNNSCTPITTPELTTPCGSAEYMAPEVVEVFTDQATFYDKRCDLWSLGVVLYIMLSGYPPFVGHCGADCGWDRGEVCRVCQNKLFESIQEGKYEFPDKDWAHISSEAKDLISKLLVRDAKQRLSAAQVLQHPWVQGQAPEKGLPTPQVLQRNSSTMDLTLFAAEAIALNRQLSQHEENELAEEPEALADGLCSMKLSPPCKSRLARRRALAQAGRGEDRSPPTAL

MV4-11 [8] = assay: Induction of apoptosis in human MV4-11 cells assessed as increase in cleaved PARP level after 72 hrs by Western blot analysis; format: functional, cell-based; settings: dose microM 1-30, time 72.0 hrs
[9] = molecular target: T3, MAP kinase-interacting serine/threonine-protein kinase 1/2 (Homo sapiens) (UniProt Q9HBH9+Q9BUB5); assay: Inhibition of MNK1/MNK2 in human MOLM-13 cells assessed as reduction in eIF4E phosphorylation reduction in eIF4E phosphorylation after 24 to 48 hrs by Western blot analysis; format: cell-based; settings: dose microM 1-30, time hrs 24-48
MV4-11 [10] = assay: Induction of cell cycle arrest in human MV4-11 cells assessed as increase in accumulation at sub-G1 phase at 3 to 30 uM after 72 hrs by propidium iodide staining based flow cytometric analysis; format: functional; settings: dose microM 3-30, time 72.0 hrs
MV4-11 [11] = assay: Induction of apoptosis in human MV4-11 cells assessed as increase in cleaved caspace-3 level after 72 hrs by Western blot analysis; format: functional, cell-based; settings: dose microM 1-30, time 72.0 hrs
[12] = molecular target: T2, MAP kinase-interacting serine/threonine-protein kinase 1; assay: Inhibition of GST-tagged recombinant human full length MNK1 expressed in insect cells
Target sequence in this assay (Q9BUB5 whole entry): as the sequence (Q9BUB5 whole entry, looked up) above

[13] = molecular target: T3, MAP kinase-interacting serine/threonine-protein kinase 1/2 (Homo sapiens); assay: Inhibition of MNK1/MNK2 in human MOLM-13 cells assessed as reduction in eIF4E phosphorylation reduction in eIF4E phosphorylation at 30 uM after 24 to 48 hrs by Western blot analysis; format: cell-based; settings: time hrs 24-48
MOLM-13 [14] = assay: Induction of apoptosis in human MOLM-13 cells assessed as increase in cleaved PARP level after 72 hrs by Western blot analysis; format: functional, cell-based; settings: dose microM 1-30, time 72.0 hrs
[15] = molecular target: T3, MAP kinase-interacting serine/threonine-protein kinase 1/2 (Homo sapiens); assay: Inhibition of MNK1/MNK2 in human MV4-11 cells assessed as reduction in eIF4E phosphorylation reduction in eIF4E phosphorylation after 24 to 48 hrs by Western blot analysis; format: cell-based; settings: dose microM 1-30, time hrs 24-48
MV4-11 [16] = assay: Induction of cell death in human MV4-11 cells assessed as increase in accumulation at sub-G1 phase after 72 hrs by propidium iodide staining based flow cytometric analysis; format: functional; settings: dose microM 1-30, time 72.0 hrs
[17] = molecular target: T3, MAP kinase-interacting serine/threonine-protein kinase 1/2 (Homo sapiens); assay: Inhibition of MNK1/MNK2 in human MV4-11 cells assessed as reduction in eIF4E phosphorylation reduction in eIF4E phosphorylation at 30 uM after 24 to 48 hrs by Western blot analysis; format: cell-based; settings: time hrs 24-48
MOLM-13 [18] = assay: Induction of apoptosis in human MOLM-13 cells assessed as increase in cleaved caspace-3 level after 72 hrs by Western blot analysis; format: functional, cell-based; settings: dose microM 1-30, time 72.0 hrs
MOLM-13 [19] = assay: Induction of cell cycle arrest in human MOLM-13 cells assessed as increase in accumulation at sub-G1 phase at 1 to 30 uM after 72 hrs by propidium iodide staining based flow cytometric analysis; format: functional; settings: dose microM 1-30, time 72.0 hrs
[20] = molecular target: T3, MAP kinase-interacting serine/threonine-protein kinase 1/2 (Homo sapiens); assay: Inhibition of MNK1/MNK2 in human MOLM-13 cells assessed as reduction in eIF4E phosphorylation reduction in eIF4E phosphorylation at 10 uM after 24 to 48 hrs by Western blot analysis; format: cell-based; settings: time hrs 24-48
MOLM-13 [21] = assay: Induction of cell cycle arrest in human MOLM-13 cells assessed as increase in accumulation at sub-G1 phase at 30 uM after 72 hrs by propidium iodide staining based flow cytometric analysis relative to control; format: functional
MV4-11 [22] = assay: Induction of cell cycle arrest in human MV4-11 cells assessed as increase in accumulation at sub-G1 phase at 1 to 30 uM after 72 hrs by propidium iodide staining based flow cytometric analysis; format: functional; settings: dose microM 1-30, time 72.0 hrs
[23] = molecular target: T3, MAP kinase-interacting serine/threonine-protein kinase 1/2 (Homo sapiens); assay: Inhibition of MNK1/MNK2 in human MV4-11 cells assessed as reduction in eIF4E phosphorylation reduction in eIF4E phosphorylation at 10 uM after 24 to 48 hrs by Western blot analysis; format: cell-based; settings: time hrs 24-48
MV4-11 [24] = assay: Induction of cell cycle arrest in human MV4-11 cells assessed as increase in accumulation at sub-G1 phase at 30 uM after 72 hrs by propidium iodide staining based flow cytometric analysis relative to control; format: functional

**Q.** COc1cc(O)c(C(=O)/C=C/c2ccc(C(=O)O)cc2)c(OC)c1 was tested. Which pIC50 [1] did it give?
**A.** Its pIC50 is 5.43.

**Q.** What about the inhibition [2] of the same molecule?
**A.** Its inhibition is > 70%.

**Q.** With O=c1c(O)c(-c2ccncc2)oc2ccc(Cl)cc12 as the molecule, how does the pIC50 [1] read?
**A.** The pIC50 was 5.19.

**Q.** And the inhibition [2]?
**A.** The inhibition was > 70%.

**Q.** With COc1ccc(C(=O)/C=C/c2ccc(O)c(Br)c2)cc1 as the molecule, how does the pIC50 [1] read?
**A.** The pIC50 was 5.33.

**Q.** What about the inhibition [2] of the same molecule?
**A.** Its inhibition is > 70%.

**Q.** With COc1cc2c(c(OC)c1CC=C(C)C)C(=O)CC(c1ccc(OC)c(OC)c1C/C=C(\C)CCC=C(C)C)O2 (centres undefined) as the molecule, how does the pIC50 [1] read?
**A.** Its pIC50 is 5.08.

**Q.** What about the inhibition [2] of the same molecule?
**A.** Its inhibition is > 70%.

**Q.** COc1ccc(-c2oc3cc(OC)c(OC)c(O)c3c(=O)c2O)cc1O was tested. Which pIC50 [1] did it give?
**A.** The pIC50 was 5.77.

**Q.** What about the inhibition [2] of the same molecule?
**A.** The inhibition was > 70%.

**Q.** How did the inhibition [2] turn out when COc1cc(O)c(C(=O)/C=C/c2ccccc2)c(OC)c1 was run?
**A.** The inhibition was > 50%.

**Q.** Which inhibition [2] does the source give for COc1ccc(-c2cc(=O)c3c(O)cc(O)cc3o2)cc1 here?
**A.** The inhibition was > 50%.

**Q.** With COc1ccc(-c2cc(=O)c3ccc(O)cc3o2)cc1OC as the molecule, how does the inhibition [2] read?
**A.** Its inhibition is > 50%.

**Q.** Which inhibition [2] does the source give for O=C(/C=C/c1cccc(O)c1)c1ccccc1O here?
**A.** Its inhibition is > 50%.

**Q.** Which inhibition [2] does the source give for O=c1cc(-c2ccccc2)oc2cc(O)ccc12 here?
**A.** Its inhibition is > 50%.

**Q.** How did the pIC50 [1] turn out when O=c1cc(-c2ccc(O)cc2)oc2cc(O)cc(O)c12 [APIGENIN] was run?
**A.** The pIC50 was 6.51.

**Q.** What about the inhibition [2] of the same molecule?
**A.** Its inhibition is > 70%.

**Q.** How did the pIC50 [1] turn out when COc1cc(O)c2c(=O)cc(-c3ccc(O)cc3)oc2c1 [GENKWANIN] was run?
**A.** The pIC50 was 6.01.

**Q.** What about the pIC50 (MOLM-13 [3]) of the same molecule?
**A.** Its pIC50 is < 5.00.

**Q.** And the pIC50 (MV4-11 [4])?
**A.** The pIC50 was < 5.00.

**Q.** What about the inhibition [2] of the same molecule?
**A.** Its inhibition is > 70%.

**Q.** What does the source list for COc1c(O)cc2oc(-c3ccc(O)cc3)cc(=O)c2c1O [HISPIDULIN]?
**A.** pIC50 [1]: 6.60; pIC50 (MOLM-13 [3]): 5.19; Activity (MOLM-13 [5]): Active; Activity (MOLM-13 [6]): Active; inhibition [7]: > 70%; Activity (MV4-11 [8]): Dose-dependent effect; inhibition [9]: Dose-dependent effect; Activity (MV4-11 [10]): Active; Activity (MV4-11 [11]): Dose-dependent effect; pIC50 (MV4-11 [4]): 5.09; pIC50 [12]: 5.92; inhibition [13]: 100%; Activity (MOLM-13 [14]): Dose-dependent effect; inhibition [15]: Dose-dependent effect; Activity (MV4-11 [16]): Active; inhibition [2]: 93%; inhibition [17]: 100%; Activity (MOLM-13 [18]): Dose-dependent effect

**Q.** How did the pIC50 [1] turn out when O=c1cc(-c2ccc(O)c(O)c2)oc2cc(O)cc(O)c12 [LUTEOLIN] was run?
**A.** The pIC50 was 6.24.

**Q.** And the pIC50 (MOLM-13 [3])?
**A.** Its pIC50 is 5.35.

**Q.** What about the Activity (MOLM-13 [5]) of the same molecule?
**A.** The Activity was “Active”.

**Q.** What about the Activity (MOLM-13 [19]) of the same molecule?
**A.** The Activity was “Active”.

**Q.** And the inhibition [7]?
**A.** The inhibition was > 70%.

**Q.** What about the Activity (MV4-11 [8]) of the same molecule?
**A.** Its Activity is “Dose-dependent effect”.

**Q.** What about the inhibition [9] of the same molecule?
**A.** The inhibition was “Dose-dependent effect”.

**Q.** What about the Activity (MV4-11 [11]) of the same molecule?
**A.** The Activity was “Dose-dependent effect”.

**Q.** What about the inhibition [20] of the same molecule?
**A.** The inhibition was 100%.

**Q.** And the pIC50 (MV4-11 [4])?
**A.** The pIC50 was 5.51.

**Q.** And the Activity (MOLM-13 [21])?
**A.** The Activity was >80%.

**Q.** And the pIC50 [12]?
**A.** The pIC50 was 6.75.

**Q.** What about the Activity (MOLM-13 [14]) of the same molecule?
**A.** Its Activity is “Dose-dependent effect”.

**Q.** And the inhibition [15]?
**A.** The inhibition was “Dose-dependent effect”.

**Q.** And the Activity (MV4-11 [22])?
**A.** Its Activity is “Active”.

**Q.** What about the Activity (MV4-11 [16]) of the same molecule?
**A.** Its Activity is “Active”.

**Q.** And the inhibition [2]?
**A.** The inhibition was > 70%.

**Q.** And the Activity (MOLM-13 [18])?
**A.** Its Activity is “Dose-dependent effect”.

**Q.** What about the inhibition [23] of the same molecule?
**A.** The inhibition was 100%.

**Q.** What about the Activity (MV4-11 [24]) of the same molecule?
**A.** Its Activity is >80%.
